Among the data in PubChem BioAssay AID652149 (Molecular Libraries Program, Specialized Chemistry Center, …, 2013) are IC50 and inhibition values, retold here.

The source made the active and inactive calls. How the calls were made is not given here.

One test deals with Breakpoint cluster region protein (Homo sapiens) (UniProt P11274). The test can be described thus: dose-response of breakpoint cluster region GAP-domain inhibitors, specificity screen for MgcRacGAP inhibitor effort, cell-free enzymatic, Rac1 GTPase, Biomol Green phosphate measurement (AID 652149). As to conditions: BCR GAP/Rac1 GTPase, Biomol green phosphate absorbance.
Chain of Breakpoint cluster region protein (Homo sapiens) (P11274 whole entry, looked up): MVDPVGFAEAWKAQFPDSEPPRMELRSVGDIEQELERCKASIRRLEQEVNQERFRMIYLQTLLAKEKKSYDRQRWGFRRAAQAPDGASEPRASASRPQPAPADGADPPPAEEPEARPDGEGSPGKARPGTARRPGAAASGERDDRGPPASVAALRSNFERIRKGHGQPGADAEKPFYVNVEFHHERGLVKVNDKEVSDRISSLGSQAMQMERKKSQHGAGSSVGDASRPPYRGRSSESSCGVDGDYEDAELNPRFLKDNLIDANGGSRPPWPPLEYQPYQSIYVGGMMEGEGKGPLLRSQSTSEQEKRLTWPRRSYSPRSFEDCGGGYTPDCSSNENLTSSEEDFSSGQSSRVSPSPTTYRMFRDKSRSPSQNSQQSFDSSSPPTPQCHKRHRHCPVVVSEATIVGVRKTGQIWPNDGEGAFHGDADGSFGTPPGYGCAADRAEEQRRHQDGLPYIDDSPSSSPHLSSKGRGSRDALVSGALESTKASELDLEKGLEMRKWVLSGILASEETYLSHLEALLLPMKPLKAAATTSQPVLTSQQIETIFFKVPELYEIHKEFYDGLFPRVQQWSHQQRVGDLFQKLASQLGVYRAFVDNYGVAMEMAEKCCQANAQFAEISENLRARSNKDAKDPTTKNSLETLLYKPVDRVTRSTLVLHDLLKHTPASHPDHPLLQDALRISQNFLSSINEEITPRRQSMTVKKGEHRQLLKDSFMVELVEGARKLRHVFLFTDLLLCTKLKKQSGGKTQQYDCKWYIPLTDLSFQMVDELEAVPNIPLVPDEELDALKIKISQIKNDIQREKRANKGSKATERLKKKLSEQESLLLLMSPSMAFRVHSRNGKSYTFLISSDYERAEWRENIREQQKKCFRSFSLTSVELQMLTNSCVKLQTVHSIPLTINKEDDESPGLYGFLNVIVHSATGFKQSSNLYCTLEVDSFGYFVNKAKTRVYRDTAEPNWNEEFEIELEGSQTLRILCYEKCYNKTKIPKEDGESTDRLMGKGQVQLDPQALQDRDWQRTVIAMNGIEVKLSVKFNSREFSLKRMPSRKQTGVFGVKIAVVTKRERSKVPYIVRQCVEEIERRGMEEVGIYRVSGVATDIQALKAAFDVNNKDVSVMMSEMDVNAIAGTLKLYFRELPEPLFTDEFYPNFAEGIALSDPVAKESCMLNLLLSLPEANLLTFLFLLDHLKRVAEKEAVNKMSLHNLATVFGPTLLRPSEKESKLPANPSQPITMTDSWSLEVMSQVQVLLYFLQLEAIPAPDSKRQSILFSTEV
On to `O=c1c2ccc(F)cc2sn1-c1ccccc1`, for which the half-inhibitory concentration (IC50) amounted to 9.12 µM. Still for that read-out and setting: the result for `O=C(O)c1cc(N2C(=O)C=CC2=O)cc(N2C(=O)C=CC2=O)c1` reads 24.4 µM. Still for that read-out and setting: the result for `Nc1ccc(OCc2ccco2)cc1` reads 20.6 µM; that for `O=c1c2sc3ccccc3c2[nH]c(=S)n1CCN1CCOCC1`, 5.15 µM. On the same count and under the same terms, the result for `COc1ccc(Nc2ccc3ccccc3c2)cc1` reads 5.93 µM. `O=c1c2cc(F)ccc2sn1-c1ccccc1Cl` registered an IC50 of 8.92 µM.

In turn, `O=C1C=CC(=O)c2c(O)c(N3CCN(CCO)CC3)c(Cl)c(O)c21` came in with an IC50 of 10.2 µM. Same read-out and setting: the result for `CCN(CC)c1ccc(C(=C2C=CC(=[N+](CC)CC)C=C2)c2ccc(N(CC)CC)cc2)cc1` reads 35.1 µM; that for `Cc1c(Cl)sn(-c2ccc(Cl)cc2)c1=O`, 12.9 µM. Still for that read-out and setting: the result for `COc1ccc(NC2CCCN(C(=O)C3(C)CCCCC3)C2)cc1` (stereo unspecified) reads 7.34 µM. Still for that read-out and setting: the result for `O=C1NC(=S)N(c2ccccc2)C(=O)/C1=C/c1ccco1` reads 10.2 µM. For the molecule `O=c1c2cc(F)ccc2sn1-c1ccccc1`, the IC50 was determined as 7.49 µM. This IC50 and that of the molecule before are within 1.5-fold of each other. The same measure, in the same setting: the result for `O=C1C=CC(=O)c2c(O)c(N3CCN(CCOCCO)CC3)c(Br)c(O)c21` reads 31.4 µM; that for `Cc1ccc(C)c(-n2sc3ccc(F)cc3c2=O)c1`, 7.31 µM. For `CN(C)c1ccc(/C=C/c2cc[n+](C)c3ccccc23)cc1`, the IC50 was 23.3 µM. Against the preceding molecule, the IC50 is about 3.2-fold higher. As for `Cn1ccc(=Nc2ccc(NC(=O)c3ccc(N=c4ccn(C)c5ccc([N+](=O)[O-])cc45)cc3)cc2)cc1`, the IC50 is 14.2 µM. Same read-out and setting: the result for `CN(C)c1ccc(C=c2c3cc(O)ccc3n3c2cc(-c2ccccc2)[n+]3C)cc1` reads 10.8 µM; that for `COc1ccc(/C=N/Nc2cc(C)nc3ccc(OC)cc23)c(OC)c1`, 18.4 µM; that for `CC1OC(CC(=O)O)CC2=C1C(=O)c1c(O)cccc1C2=O` (stereo unspecified), 13.2 µM.

As to `O=C1C(Cl)=C(NC(=O)c2ccccc2)C(=O)C(Cl)=C1NC(=O)c1ccccc1`, the IC50 was determined as 22.7 µM. In turn, `Cc1ccc(-n2sc3cc(F)ccc3c2=O)c(C)c1` had a half-inhibitory concentration (IC50) of 6.71 µM.

Regarding `O=C1C(=Cc2ccco2)CCC1=Cc1ccco1`, the IC50 came out at 12.7 µM.

For the molecule `Cc1cc(C)c2c(=N)c3ccccc3n(CCCCCCCCn3c4ccccc4c(=N)c4c(C)cc(C)nc43)c2n1`, the concentration for half-maximal inhibition (IC50) is 18 µM. Same read-out and setting: the result for `O=C1C(SCCO)=C(SCCO)C(=O)c2ccccc21` reads 25.2 µM; that for `O=C(O)c1cccc(-n2sc3ccccc3c2=O)c1`, 9.61 µM.

`O=C(O)C1CSC(c2ccco2)N1` (stereo unspecified) came in with an IC50 of 10.7 µM. The IC50 values of the last two molecules are within 1.5-fold of each other.

For the molecule `CC1=NNC(=O)C1Br` (stereo unspecified), the half-maximal inhibitory concentration (IC50) worked out at 13.6 µM. Still for that read-out and setting: the result for `C[n+]1c(-c2ccc(C=NNC(=O)c3ccc(C(=O)NN=Cc4ccc(-c5cn6ccccc6[n+]5C)cc4)cc3)cc2)cn2ccccc21` reads 14.4 µM. In turn, `O=c1c2ccccc2sn1-c1ccc(Cl)cc1` displayed an IC50 of 4.44 µM. This IC50 is about 3.2-fold lower than that of the molecule before. On the same count and under the same terms, the result for `COc1ccc(-n2sc3ccccc3c2=O)cc1` reads 13.3 µM. Turning to `Nc1n[nH]c(=S)n1/N=C1/C(=O)Nc2ccccc21`, the IC50 is 14.6 µM.

The molecule `O=C1C=CC(=O)N1c1ccccc1N1C(=O)C=CC1=O` registered a concentration for half-maximal inhibition (IC50) of 22.1 µM. Same read-out and setting: the result for `O=c1c2ccccc2sn1-c1ccc(Cl)cc1Cl` reads 4.22 µM; that for `CCN1CCN(Cc2ccc(NC(=O)c3ccc(C)c(/C=C/c4cnc(Nc5cc(N6CCNCC6)nc(C)n5)cn4)c3)cc2C(F)(F)F)CC1`, 72.7 µM. Same read-out and setting: the result for `COC(=O)c1cccc(-n2sc3ccccc3c2=O)c1` reads 14.8 µM; that for `CSc1nc(N)c(N=Nc2ccc([As](=O)(O)O)cc2)c(=O)[nH]1`, 5.86 µM; that for `Cc1cc(N)c2cc(NC(=O)/C=C/c3ccccc3Cl)ccc2n1`, 29.1 µM. The same measure, in the same setting: the result for `CN(C)c1nc(=NCc2cccs2)ss1` reads 18.5 µM; that for `COc1ccc(-n2sc3ccc(F)cc3c2=O)cc1`, 9.82 µM. Molecule `O=c1c2ccccc2sn1-c1ccc(F)cc1` had a concentration for half-maximal inhibition (IC50) of 4.46 µM. On the same count and under the same terms, the result for `CC(=O)Nc1ccc2sn(-c3ccccc3)c(=O)c2c1` reads 27.4 µM; that for `O=C(Nc1ccccc1Cl)/C(Cl)=C(\Cl)S(=O)c1ccccc1` (stereo unspecified), 12.6 µM; that for `O=c1c2ccccc2sn1-c1cccc(Cl)c1`, 38.1 µM.

On to `O=c1c2ccccc2sn1-c1ccccc1F`, for which the IC50 was found to be 32.8 µM.

The same test, now with this note: BCR GAP/Rac1 GTPase, Biomol green phosphate absorbance; at 100 µM (top of the series).
Take `CN(C)c1ncc(C2=C(Cl)C(=O)C(N3CCCC3)=C(Cl)C2=O)s1`: the inhibition entry was “inactive”. Take `O=C(O)c1cc(N2N=C(C(F)(F)F)/C(=C/C=C/c3ccco3)C2=O)ccc1Cl`: the inhibition entry was “inactive”.

Broadly, the IC50 is the point on the concentration scale where inhibition reaches its midpoint. The low end stands for higher potency, the high end for lower potency.
